Values quoted from earlier work as cited in paper PMC9737391, “Trifluoromethylcinnamanilide Michael Acceptors for Treatment of Resistant Bacterial Infections” (International Journal of Molecular Sciences, 2022).

Tested on: NF-κB
Set-up: method as in PMID 31835703
Conditions: compared with prednisone; cited from earlier work

O=C(/C=C/c1ccccc1)Nc1cc(C(F)(F)F)ccc1Cl [3g]
anti-inflammatory potential (NF-κB inhibition): comparable to that prednisone
